Target: recombinant PI3K δ enzyme (Homo sapiens (Human), UniProt O00329)
Test: In vitro enzyme assay (Kinase-Glo luminescent kinase assay), PI3Kδ
Format: biochemical
Protocol: The Kinase-Glo luminescent kinase assay kit (from Promega) was used to measure kinase activity. In this assay, amount of ATP remaining in solution following a kinase reaction is measured. The effect of compounds on PI3Kδ inhibition was carried out by adding 2.29 μg/ml of recombinant PI3K δ enzyme (Proteros, Germany) to reaction mixture containing assay buffer (50 mM HEPES, pH 7.4, 50 mM NaCl, 0.05% CHAPS) supplemented with 10 mM MgCl2, 5 mM DTT, 60 μM Phosphatidyl inositol bisphosphate (PIP2) and 10 μM ATP in the absence or presence of different concentrations of the compounds in a final volume of 15 μl/well, in a 384 well plate. The reaction mixture was incubated for 2 hours at room temperature. At the end of incubation period the equal volume of Kinase-Glo plus (Promega, V3772), was added per well and the luminescence was measured after incubating for 10 minutes at room temperature in dark. Results were calculated by measuring the luminescence units of test samples to blanks containing no enzyme.
The compounds of the present invention were tested for their selectivity for PI3Kδ over PI3Kα, PI3Kβ and PI3Kγ following the above assay using specific recombinant enzymes (Proteros, Germany) for each kinase. Assay condition of kinase assay (PI3Kα, PI3Kβ, PI3Kγ and PI3Kδ) was as follows. Enzyme: 2.29 μg/mL; ATP: 10 μM; PIP2 substrate: 60 μM and Reaction Time: 2 hours.

recombinant PI3K δ enzyme, sequence (O00329 whole entry, species assumed): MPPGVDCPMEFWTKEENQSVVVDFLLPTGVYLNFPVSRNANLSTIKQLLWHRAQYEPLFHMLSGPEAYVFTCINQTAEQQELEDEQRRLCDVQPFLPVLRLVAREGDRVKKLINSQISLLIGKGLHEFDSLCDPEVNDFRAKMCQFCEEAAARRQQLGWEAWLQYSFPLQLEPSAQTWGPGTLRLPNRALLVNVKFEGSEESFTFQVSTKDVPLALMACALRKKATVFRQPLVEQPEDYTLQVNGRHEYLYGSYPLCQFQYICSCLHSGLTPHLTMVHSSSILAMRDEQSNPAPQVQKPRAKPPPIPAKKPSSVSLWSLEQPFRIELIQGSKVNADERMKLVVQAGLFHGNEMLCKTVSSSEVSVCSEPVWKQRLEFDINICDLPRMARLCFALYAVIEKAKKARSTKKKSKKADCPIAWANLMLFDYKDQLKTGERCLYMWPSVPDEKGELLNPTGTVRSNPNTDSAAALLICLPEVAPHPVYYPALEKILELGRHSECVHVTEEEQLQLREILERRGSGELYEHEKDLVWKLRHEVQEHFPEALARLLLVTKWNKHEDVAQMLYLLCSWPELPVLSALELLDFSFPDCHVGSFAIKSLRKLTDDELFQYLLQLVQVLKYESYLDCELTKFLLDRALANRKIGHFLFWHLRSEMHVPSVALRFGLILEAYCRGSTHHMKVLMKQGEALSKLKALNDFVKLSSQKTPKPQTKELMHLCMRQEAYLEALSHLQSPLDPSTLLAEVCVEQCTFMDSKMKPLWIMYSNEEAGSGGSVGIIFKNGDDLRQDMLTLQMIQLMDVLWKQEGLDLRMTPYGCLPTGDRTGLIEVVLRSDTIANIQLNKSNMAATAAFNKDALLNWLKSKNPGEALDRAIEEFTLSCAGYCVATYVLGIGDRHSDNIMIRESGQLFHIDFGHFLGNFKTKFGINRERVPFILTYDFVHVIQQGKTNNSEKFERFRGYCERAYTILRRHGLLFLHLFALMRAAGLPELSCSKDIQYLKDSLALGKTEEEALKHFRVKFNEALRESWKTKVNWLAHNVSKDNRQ
recombinant PI3K δ enzyme, sequence (P27986 whole entry partner, species assumed): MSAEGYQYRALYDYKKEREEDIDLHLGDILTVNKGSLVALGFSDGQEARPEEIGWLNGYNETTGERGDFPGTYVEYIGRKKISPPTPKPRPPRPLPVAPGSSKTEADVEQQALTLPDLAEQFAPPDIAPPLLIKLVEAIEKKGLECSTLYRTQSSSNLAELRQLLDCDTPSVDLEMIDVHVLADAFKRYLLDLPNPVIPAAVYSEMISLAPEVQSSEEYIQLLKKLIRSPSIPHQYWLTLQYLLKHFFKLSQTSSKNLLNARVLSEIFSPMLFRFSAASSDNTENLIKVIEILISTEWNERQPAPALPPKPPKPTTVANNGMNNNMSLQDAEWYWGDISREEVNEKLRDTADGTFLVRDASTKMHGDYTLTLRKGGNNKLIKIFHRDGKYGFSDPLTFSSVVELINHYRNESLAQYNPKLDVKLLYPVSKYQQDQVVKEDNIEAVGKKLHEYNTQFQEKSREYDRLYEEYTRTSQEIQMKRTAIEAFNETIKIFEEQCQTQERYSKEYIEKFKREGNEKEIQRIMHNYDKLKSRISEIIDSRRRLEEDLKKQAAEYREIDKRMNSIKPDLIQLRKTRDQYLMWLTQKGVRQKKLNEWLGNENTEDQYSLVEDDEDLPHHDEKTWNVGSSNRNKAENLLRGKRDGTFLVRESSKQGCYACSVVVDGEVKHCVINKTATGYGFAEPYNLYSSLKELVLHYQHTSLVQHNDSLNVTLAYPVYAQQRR

SMILES | IC50
Cn1cc(-c2nc(N3CCOCC3)c3nc(C(=O)NCC(C)(C)CO)[nH]c3n2)cn1 [compound 76, N-(3-hydroxy-2,2-dimethylpropyl)-2-(1-methyl-1H-pyrazol-4-yl)-6-(morpholin-4-yl)-9H-purine-8-carboxamide] | 101 nM
Cn1cc(-c2nc3[nH]c(C(=O)N4CCN5C(=O)COC[C@H]5C4)nc3c(N3CCOCC3)c2F)cn1 [compound 80, (9aR)-8-{[6-Fluoro-5-(1-methyl-1H-pyrazol-4-yl)-7-(morpholin-4-yl)-3H-imidazo[4,5-b]pyridin-2-yl]carbonyl}hexahydropyrazino[2,1-c][1,4]oxazin-4(3H)-one] | 194 nM
CN(C)C1CCN(C(=O)c2nc3c(N4CCOCC4)cc(-c4cnn(C)c4)nc3n2C)CC1 [compound 100, [4-(Dimethylamino)piperidin-1-yl][3-methyl-5-(1-methyl-1H-pyrazol-4-yl)-7-(morpholin-4-yl)-3H-imidazo[4,5-b]pyridin-2-yl]methanone] | 64 nM
CN(C)C1CCN(C(=O)c2nc3c(N4CCOCC4)cc(-c4cnn(C)c4)nc3[nH]2)CC1 [compound 101, [4-(Dimethylamino)piperidin-1-yl][5-(1-methyl-1H-pyrazol-4-yl)-7-(morpholin-4-yl)-3H-imidazo[4,5-b]pyridin-2-yl]methanone] | 41 nM
Cn1cc(-c2cc(N3CCOCC3)c3nc(C(=O)NCCN4CCOCC4)[nH]c3n2)cn1 [compound 103, 5-(1-Methyl-1H-pyrazol-4-yl)-7-(morpholin-4-yl)-N-[2-(morpholin-4-yl)ethyl]-3H-imidazo[4,5-b]pyridine-2-carboxamide] | 147 nM
Cn1cc(-c2nc3[nH]c(C(=O)NCCN4CCOCC4)nc3c(N3CCOCC3)c2F)cn1 [compound 105, 6-Fluoro-5-(1-methyl-1H-pyrazol-4-yl)-7-(morpholin-4-yl)-N-[2-(morpholin-4-yl)ethyl]-3H-imidazo[4,5-b]pyridine-2-carboxamide] | 32 nM
Cn1cc(-c2cc(N3CCOCC3)c3nc(C(=O)N4CCC(N5CCOCC5)CC4)n(C)c3n2)cn1 [compound 106, [3-Methyl-5-(1-methyl-1-pyrazol-4-yl)-7-(morpholin-4-yl)-3H-imidazo[4,5-b]pyridin-2-yl][4-(morpholin-4-yl)piperidin-1-yl]methanone] | 30 nM
Cc1nn(C)cc1-c1nc2c(nc(C(=O)N3CCC(C(C)(C)O)CC3)n2C)c(N2CCOCC2)c1F [compound 107, [5-(1,3-Dimethyl-1H-pyrazol-4-yl)-6-fluoro-3-methyl-7-(morpholin-4-yl)-3H-imidazo[4,5-b]pyridin-2-yl][4-(2-hydroxypropan-2-yl)piperidin-1-yl]methanone] | 58 nM
Cn1cc(-c2nc3c(nc(C(=O)N4CCC5(CC4)COC5)n3C)c(N3CCOCC3)c2F)cn1 [compound 108, [6-Fluoro-3-methyl-5-(1-methyl-1-pyrazol-4-yl)-7-(morpholin-4-yl)-3H-imidazo[4,5-b]pyridin-2-yl](2-oxa-7-azaspiro[3.5]non-7-yl)methanone] | 131 nM
C[C@@H]1CN(C2CCN(C(=O)c3nc4c(N5CCOCC5)cc(-c5cnn(C)c5)nc4[nH]3)CC2)C[C@H](C)O1 [compound 109, {4-[cis-2,6-Dimethylmorpholin-4-yl]piperidin-1-yl}[5-(1-methyl-1H-pyrazol-4-yl)-7-(morpholin-4-yl)-3H-imidazo[4,5-b]pyridin-2-yl]methanone] | 19 nM
C[C@@H]1CN(C2CCN(C(=O)c3nc4c(N5CCOCC5)cc(-c5cnn(C)c5)nc4n3C)CC2)C[C@H](C)O1 [compound 110, {4-[cis-2,6-Dimethylmorpholin-4-yl]piperidin-1-yl}[3-methyl-5-(1-methyl-1H-pyrazol-4-yl)-7-(morpholin-4-yl)-3H-imidazo[4,5-b]pyridin-2-yl]methanone] | 63 nM
Cn1cc(-c2nc3c(nc(C(=O)N4CCC(N5CCOCC5)CC4)n3C)c(N3CCOCC3)c2F)cn1 [compound 111, [6-Fluoro-3-methyl-5-(1-methyl-1-pyrazol-4-yl)-7-(morpholin-4-yl)-3H-imidazo[4,5-b]pyridin-2-yl][4-(morpholin-4-yl)piperidin-1-yl]methanone] | 184 nM

Now from value to compound:

IC50 | SMILES
7 nM | Cn1cc(-c2nc3[nH]c(C(=O)N4CCN(C5CCOCC5)CC4)nc3c(N3CCOCC3)c2F)cn1 [compound 81, [6-Fluoro-5-(1-methyl-1H-pyrazol-4-yl)-7-(morpholin-4-yl)-3H-imidazo[4,5-b]pyridin-2-yl][4-(tetrahydro-2H-pyran-4-yl)piperazin-1-yl]methanone]
92 nM | Cc1nn(C)cc1-c1nc2c(nc(C(=O)N3CCC(N4CCOCC4)CC3)n2CC2CC2)c(N2CCOCC2)c1F [compound 83, [3-(Cyclopropylmethyl)-5-(1,3-dimethyl-1H-pyrazol-4-yl)-6-fluoro-7-(morpholin-4-yl)-3H-imidazo[4,5-b]pyridin-2-yl][4-(morpholin-4-yl)piperidin-1-yl]methanone]
365 nM | Cc1nn(C)c(C)c1-c1nc2[nH]c(C(=O)N3CCC(N4CCOCC4)CC3)nc2c(N2CCOCC2)c1C [compound 88, [6-Methyl-7-(morpholin-4-yl)-5-(1,3,5-trimethyl-1H-pyrazol-4-yl)-3H-imidazo[4,5-b]pyridin-2-yl][4-(morpholin-4-yl)piperidin-1-yl]methanone]
46 nM | Cc1nn(C)cc1-c1nc2[nH]c(C(=O)N3CCC(N4CCOCC4)CC3)nc2c(N2CCOCC2)c1C [compound 89, [5-(1,3-Dimethyl-1H-pyrazol-4-yl)-6-methyl-7-(morpholin-4-yl)-3H-imidazo[4,5-b]pyridin-2-yl][4-(morpholin-4-yl)piperidin-1-yl]methanone]
188 nM | Cc1c(-c2cnn(C)c2)nc2[nH]c(C(=O)N3CCC(N4CCOCC4)CC3)nc2c1N1CCOCC1 [compound 90, [6-Methyl-5-(1-methyl-1H-pyrazol-4-yl)-7-(morpholin-4-yl)-3H-imidazo[4,5-b]pyridin-2-yl][4-(morpholin-4-yl)piperidin-1-yl]methanone]
31 nM | Cc1nn(C)cc1-c1nc2[nH]c(C(=O)N3CCC(N4CCOCC4)CC3)nc2c(N2CCOCC2)c1Cl [compound 91, [6-Chloro-5-(1,3-dimethyl-1H-pyrazol-4-yl)-7-(morpholin-4-yl)-3H-imidazo[4,5-b]pyridin-2-yl][4-(morpholin-4-yl)piperidin-1-yl]methanone]
163 nM | Cn1cc(-c2nc3[nH]c(C(=O)N4CCC(N5CCOCC5)CC4)nc3c(N3CCOCC3)c2Cl)cn1 [compound 92, [6-Chloro-5-(1-methyl-1H-pyrazol-4-yl)-7-(morpholin-4-yl)-3H-imidazo[4,5-b]pyridin-2-yl][4-(morpholin-4-yl)piperidin-1-yl]methanone]
202 nM | Cc1c(-c2nc3[nH]c(C(=O)N4CCC(N5CCOCC5)CC4)nc3c(N3CCOCC3)c2F)cnn1C [compound 95, [5-(1,5-Dimethyl-1H-pyrazol-4-yl)-6-fluoro-7-(morpholin-4-yl)-3H-imidazo[4,5-b]pyridin-2-yl][4-(morpholin-4-yl)piperidin-1-yl]methanone]
22 nM | Cc1nn(C)cc1-c1cc(N2CCOCC2)c2nc(C(=O)N3CCC(N4CCOCC4)CC3)n(C)c2n1 [compound 104, [5-(1,3-Dimethyl-1H-pyrazol-4-yl)-3-methyl-7-(morpholin-4-yl)-3H-imidazo[4,5-b]pyridin-2-yl][4-(morpholin-4-yl)piperidin-1-yl]methanone]

— patent US10174035B2, “6-morpholinyl-2-pyrazolyl-9H-purine derivatives and their use as PI3K inhibitors” (Daiichi Sankyo Company, Limited, priority 2015, dated 2019)
